{
  "source": "patent US6821761B2",
  "about": "“Sphingolipid ceramide N-deacylase, methods for producing sphingolipids and sphingolipid derivatives, and sphingolipid ceramide N-deacylase gene” (Takara Bio, Inc., priority 1994, dated 2004)",
  "key": {"[1]": {"tested_on": "Limulus polyphemus ceramidase", "test": "Ceramidase activity of Limulus polyphemus serum / purified ceramidase on ceramide substrates", "type": "biochemical", "method": "A 10 μl of serum obtained by centrifugation of Limulus polyphemus blood was allowed to undergo 18 hours of reaction at 37° C. with 10 μl of 50 mM acetate buffer (pH 5.0) containing 1 nmol of NBD ceramide prepared in Example 21 and 0.5% Triton X-100. After completion of the reaction, the reaction solution was developed on thin layer chromatography (developing solvent: chloroform/methanol/25% liquid ammonia=90/20/0.5 by volume) and detected under an ultraviolet ray lamp.\nIn order to confirm that the ceramidase activity found in the Limulus polyphemus serum is really a ceramidase-derived activity, the ceramidase was purified to find that it was an acidic ceramidase having an optimum pH of 4.5 and a molecular weight of about 205 kDa when measured by a gel filtration method."}, "ceramidase in B16 cells": {"tested_on": "ceramidase in B16 cells", "test": "Measurement of ceramidase activity in B16 cells with labeled ceramide substrates", "type": "biochemical", "conditions": "B16 cell suspension, 50 μg protein, 0.5% Triton X-100, 37° C. 3 or 6 hours; FIG. 16", "method": "Measurement of ceramidase activity in B16 cells using radioisotope labeled ^14C ceramide (C12−^14C-Cer) and fluorescent sphingolipid derivative NBD ceramide (C12-NBD-Cer) as the substrate:\nA cell suspension was prepared by suspending 6×10^6 of B16 cells in 200 μl of 10 mM phosphate buffer. The amount of the protein was determined using MicroBCA™ protein assay reagent (manufactured by Pierce).\nUnder acidic condition in 10 μl of 50 MM acetate buffer (pH 4.0) containing 10 μl of the cell suspension (diluted to a protein content of 50 μg), 200 pmol of C12-NBD-Cer obtained in Example 21 or 100 pmol of C12−^14C-Cer obtained using lauric acid instead of palmitic acid used in Example 20, as the substrate, and 0.5% Triton X-100. […]\nEach of the samples was developed on thin layer chromatography (developing solvent, chloroform/methanol/25% liquid ammonia =90/20/0.5 by volume), and the released ^14C fatty acid was determined using BAS 1000 Imaging Analyzer (manufactured by Fuji Photo Film) to calculate the reaction ratio. Also, the released NBD fatty acid was determined using Chromatoscanner CS 9000 (manufactured by Shimadzu Corporation), and the reaction ratio was calculated."}, "crude SCDase": {"tested_on": "crude SCDase", "test": "Substrate specificity of crude SCDase (culture supernatant) from Shewanella alga NS-589", "type": "biochemical", "conditions": "SCDase produced by Shewanella alga NS-589", "description": "Acting on acidic glycolipids (GM1, GM2, GD1a, GD1b, sialosyl paragloboside, etc.), neutral glycolipids (lactosyl ceramide, Gb4, Gb5, etc.), sulfated glycolipids (sulfatide, etc.) and sphingomyelin which is a sphingophospholipid, thus forming the corresponding lysosphingolipid and fatty acid in each case.\nThe substrate specificity was examined as follows. Shewanella alga NS-589 was inoculated into a synthetic medium (dipotassium hydrogenphosphate 0.05%, ammonium chloride 0.05%, sphingomyelin 0.1%, sodium taurodeoxycholate 0.1%, sodium chloride 2%, 2,6-O-dimethyl-β-cyclodextrin 0.1%; pH 7.4). Two days after shaking cultivation at 30° C., the strain was removed to obtain a supernatant by centrifuge. A 50 mM acetate buffer ([…]; pH 6.0) containing 3 μl of the supernatant and 1.6% Triton X-100 was allowed to react with 5 μl of 1.2 mM of each of sphingolipids shown in Table 2 at 37° C. for 16 hours, and then the resulting mixture was analyzed with a thin layer chromatography.\nThe digestion ratios of various substrates by a crude SCDase obtained from Shewanella alga NS-589."}, "SCDase": {"tested_on": "SCDase", "test": "Substrate specificity (hydrolysis) of purified SCDase from Pseudomonas sp. TK-4", "type": "biochemical", "conditions": "10 nmol sphingolipid, 2 milliunits enzyme, 37° C. 16 h, 20 mM sodium acetate buffer pH 5.0, 0.8% Triton X-100, TLC", "method": "The enzyme activity of the SCDase is assayed in the following manner. To 10 μl of a substrate solution [50 mM acetate buffer solution (pH 6.0) containing 2 mM of asialo GM1 and 0.6% (w/v) of Triton X-100] is added 10 μl of an enzyme solution. After reacting at 37° C. for 30 minutes, the enzyme reaction is ceased by heating the mixture to 100° C. for 3 minutes. Then the reaction mixture is concentrated to dryness with a centrifugal concentrator. Then the obtained concentrate is dissolved in 10 μl of 50% methanol and placed on a TLC plate (silica gel 60; manufactured by Merck & Co., Inc.). After developing with chloroform/methanol/0.02% aqueous solution of CaCl2 (5/4/1 by volume), the sphingolipid is subjected to color development by the orcinol-sulfuric acid method. […] This spot is determined by using a TLC chromatoscanner (Shimadzu CS-9000, manufactured by Shimadzu Corporation) at a wavelength of 540 nm.\nSphingolipids (10 nmol each) were incubated at 37° C. for 16 h with 2 milliunits of the enzyme in 20 μl of 20 mM sodium acetate buffer, pH 5.0, containing 0.8% Triton X-100. The extent of hydrolysis was examined by TLC and calculated."}, "[2]": {"tested_on": "SCDase derived from the genus Pseudomonas", "test": "Fatty acid exchange reaction on various acceptors by SCDase", "type": "biochemical", "conditions": "1 nmol [1-14C] stearic acid, 1 nmol sphingolipid, 30 μU SCDase, acetate buffer pH 6.0, 0.8% Triton X-100, overnight 37° C., galactosyl ceramide = 100", "method": "A 10 μl portion of 50 mM acetate buffer (pH 6.0) containing 1 nmol [1−^14C] stearic acid, 1 nmol sphingolipid, 0.8% Triton X-100 and 30 μU SCDase derived from the genus Pseudomonas was allowed to react overnight at 37° C.\nThe thus obtained reaction solution was developed on thin layer chromatography and exposed to an imaging plate to carry out determination of the reaction product by BAS 1000 Imaging Analyzer (manufactured by Fuji Photo Film)."}, "Shewanella alga NS-589": {"tested_on": "Shewanella alga NS-589", "test": "Conversion of sphingomyelin into sphingosylphosphorylcholine by culture of Shewanella alga NS-589", "type": "cell-based", "conditions": "synthetic medium, sphingomyelin 0.1%, 30° C. shaking 2 days, TLC", "method": "Shewanella alga NS-589 was inoculated into 200 ml of a synthetic medium (dipotassium hydrogenphosphate 0.05%, ammonium chloride 0.05%, sphingomyelin 0.1%, sodium taurodeoxycholate 0.1%, sodium chloride 2%, 2,6-O-dimethyl-β-cyclodextrin 0.1%; pH 7.4) and incubated therein at 30° C. under shaking for 2 days.\nThen the cells were eliminated by centrifuging the culture medium to obtain the culture supernatant which was then analyzed by thin layer chromatography. […] This culture medium was added to a C18 reversed phase column [Preoperative C18 125A (manufactured by Millipore), packing: 30 g, column diameter: 30 mm, open column]. After desalting and washing with 300 ml of water, the column was eluted with 300 ml of methanol and 300 ml of chloroform/methanol=1/1 (by volume). Then the sphingosylphosphorylcholine was eluted into the methanol fraction. After removing the solvent in the sphingosylphosphorylcholine fraction with a rotary evaporator, the residue was added to a silica gel 60 column (manufactured by Merck) and fractionated with chloroform/methanol/water=5/4/1 (by volume). Further, the solvent in the sphingosylphosphorylcholine fraction thus obtained was removed with a rotary evaporator and the residue was freeze-dried. Thus 47.6 mg of purified sphingosylphosphorylcholine could be obtained."}},
  "data": [
    {"compound": "CCCCCCCCCCCCC/C=C/[C@@H](O)[C@H](CO)NC(=O)CCCCCCCCCCCCCCCCC", "note": "[N-stearoylsphingosine (C18:0, d18:1), N-stearoylsphingosine]", "values": [
      {"measurement": "Hydrolysis by purified Limulus polyphemus ceramidase (substrate preference)", "setting": "[1]; purified ceramidase", "result": "most efficiently"}
    ]},
    {"compound": "CCCCCCCCCCCCC/C=C/[C@@H](O)[C@H](CO)NC(=O)CCCCCCCCCCCNc1ccc([N+](=O)[O-])c2nonc12", "note": "[NBD ceramide]", "values": [
      {"measurement": "Hydrolysis of substrate by Limulus polyphemus serum (ceramidase activity)", "setting": "[1]; 1 nmol substrate, 10 μl serum, acetate buffer pH 5.0, 0.5% Triton X-100, 18 hours 37° C., TLC under UV", "result": "a newly formed NBD aminododecanoic acid was detected"},
      {"measurement": "Action of acidic ceramidase in B16 cells on substrate", "setting": "ceramidase in B16 cells", "result": "hardly"},
      {"measurement": "Action of alkaline ceramidase in B16 cells on substrate", "setting": "ceramidase in B16 cells", "result": "acts well"}
    ]},
    {"compound": "Sphingomyelin", "values": [
      {"measurement": "Substrate specificity: acting on the substrate, forming the corresponding lysosphingolipid and fatty acid", "setting": "crude SCDase", "result": "Acting on"},
      {"measurement": "Digestion ratio (%)", "setting": "SCDase", "result": 28, "unit": "%"},
      {"measurement": "Relative activity (%)", "setting": "[2]", "result": 2.9, "unit": "%"},
      {"measurement": "Sphingomyelin converted into sphingosylphosphorylcholine", "setting": "Shewanella alga NS-589", "result": 80, "unit": "%"}
    ]}
  ]
}
